Assay results reported in the METLIN SMRT retention time set (Domingo-Almenara et al. 2019).

Assay: gradient 5% acetonitrile 3 min, to 50% in 2 min, to 85% in 15 min, held 3 min, 100 µL/min
Conditions: column: Zorbax Extend-C18 2.1 x 50 mm; eluents: water / acetonitrile, 0.1% formic acid
Procedure, shortened: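 A Zorbax Extend-C18 column (2.1 × 50 mm, 1.8 μm) run at 100 μL/min with water and acetonitrile, both containing 0.1% formic acid, separated mixtures of ~100 pure standards. The HPLC was coupled to a quadrupole time-of-flight mass spectrometer operated in positive and negative ionization mode, with dead and dwell volumes of 40 μL and 900 μL. Each retention time was taken from a computationally picked adduct peak that was then manually inspected.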

| Compound | RP-LC retention time [s] |
| --- | --- |
| COc1ccc(NC(=O)NC(C)C(=O)N2CCc3ccccc32)cc1OC (configuration not stated) | 742 |
| Cn1c(=O)c2nc(S(=O)(=O)CCC(=O)Nc3cc(Cl)ccc3F)n(C)c2n(C)c1=O | 771 |
| CCCN1C(=O)C2(c3ccccc31)c1[nH]c3ccccc3c1CCN2C(=O)NCC (configuration not stated) | 793 |
| Cc1nc(N2CCOCC2)c2c(C(=O)NCCCc3ccccc3)c(C)oc2n1 | 805 |
| CCOc1ccc(-c2cn3ccn(-c4ccc(C(C)C)cc4)c(=O)c3n2)cc1 | 1030 |
| Fc1cccc(CSc2ccc(-n3ccnc3)nn2)c1 | 604 |
| O=[N+]([O-])c1cccc(C2Oc3ccccc3C3CC(c4cccnc4)=NN32)c1 (configuration not stated) | 790 |
| CCOc1ccc(C(=O)n2nc(C)c(S(=O)(=O)N3CCC(C)CC3)c2C)cc1 | 1280 |
| CCOC(=O)c1c(C)c(CCC(=O)NC(C)C)n(CC)c1C | 821 |
| C[C@H]1CNCCc2ccc(Cl)cc21 | 652 |
| O=C(NC1CCCCCC1)C1CCc2sc(C(=O)N3CCOCC3)cc2C1 (configuration not stated) | 789 |
| CCCCS(=O)(=O)N1CCC(N2CC(F)(F)C[C@H]2COc2cccnc2)CC1 | 682 |
| CC(C)n1c(=O)c(NCc2ccc(OC(F)(F)F)cc2)nc2ccncc21 | 733 |
| Cc1ccc(-c2nc(-c3ccc(S(=O)(=O)N4CCOCC4)cc3)no2)cc1F | 1190 |
| O=C(Nc1ccccc1)N1CCN(Cc2nc(-c3ccccc3)cs2)CC1 | 612 |
| Cc1ccc(NC(=O)CCC2CCN(c3cc(NC4CC4)ncn3)CC2)c(C)c1 | 714 |
| CC(NC(=O)c1csc(C(=O)NC2CCCC2)n1)c1ccc(F)cc1 (configuration not stated) | 931 |
| O=C(Nc1nnc(C2CCCO2)o1)c1ccc([N+](=O)[O-])s1 (configuration not stated) | 685 |
| CCC(C(=O)Nc1ccc(-c2cn3ccc(C)nc3n2)cc1)c1ccccc1 (configuration not stated) | 705 |
| COC(=O)c1ncn2c1C(=O)N(Cc1cccc(F)c1)C(C)(C(=O)NCc1ccccc1)C2 (configuration not stated) | 729 |
| Cc1oc2c(c1C(=O)Nc1ccc(F)c(F)c1)C1=NCCN1C=N2 | 643 |
| Cc1cc(N2CCN(C(=O)c3cccc(F)c3)CC2)nc(N2CCCCC2)n1 | 670 |
| O=C(c1ccc(F)cc1F)N1CCc2nc(-c3ccc(Cl)cc3)ncc2C1 | 1060 |

| Compound | RP-LC retention time [s] |
| --- | --- |
| COc1cc(=O)n2c(c1C(=O)Nc1ccc3c(c1)OCCO3)CCCC2 | 647 |
| Cc1cc(C(F)(F)F)nn1CC(=O)NCC12CCC=C1N(C)C(=O)CC2 (configuration not stated) | 739 |
| COc1ccc(-c2cc(C(=O)N3CCCC3c3cc(C)on3)no2)cc1 (configuration not stated) | 964 |
| Cc1ccn2c(Nc3ccc(Cl)cc3)c(-c3ccc(N4CCOCC4)cc3)nc2c1 | 967 |
| CC[C@@H](C)[C@@H](O)[C@H](C)C(=O)[C@H](C)/C=C(\C)C[C@H](C)[C@@H]1OC(=O)[C@H]1CC | 1250 |
| CC(NC(=O)COc1ccccc1)C(=O)N1CCN(c2ccccn2)CC1 (configuration not stated) | 602 |
| O=c1c2cnn(-c3ccc(F)cc3)c2ncn1Cc1nc(-c2ccc(OC(F)(F)F)cc2)no1 | 1160 |
| CCC(=O)Nc1ccc(S(=O)(=O)NCCc2ccc(N(C)C)cc2)c(C)c1 | 570 |
| CN(C)C(=O)c1n[nH]c2c1CN(C(=O)c1ccccc1C(F)(F)F)CC2 | 725 |
| CCOc1nc2ccccc2nc1N1CCCC(C(=O)N2CCc3ccccc3C2)C1 (configuration not stated) | 1310 |
| COc1ccc(OC)c(NC(=O)C2CCCN(c3nnc4ccccn34)C2)c1 (configuration not stated) | 667 |
| O=C(NCC1CCN(c2ncccn2)CC1)Nc1c(F)cccc1F | 610 |
| CCOC(=O)c1nc(N(CC)c2ccc(OC)cc2)c2ccccc2n1 | 941 |
| CCN(CC)CCNC(=O)Cn1ncc2c3ccccc3n(C)c2c1=O | 697 |
| Cc1cc(C)c(S(=O)(=O)N2CCCC2c2nc(-c3ccccc3)no2)cc1C (configuration not stated) | 1260 |
| COc1ccc2c(NCCCCCCNc3c4ccccc4nc4cc(OC)ccc34)c3ccccc3nc2c1 | 655 |
| CN(C)C(=O)c1ccc2c(c1)nc(CN1CCN(C(=O)c3ccc(C#N)cc3)CC1)n2C | 597 |
| CC(C)C(=O)n1nc(-c2ccc(Cl)cc2)nc1N | 1050 |
| O=C(Cn1c(-c2cccs2)nc2ccccc21)NC1CC1 | 596 |
| CCC(=O)NC(C)c1nc(-c2ccccc2Cl)no1 (configuration not stated) | 740 |
| Cn1cnc(S(=O)(=O)N2CCC(C(=O)Nc3cccc(C#N)c3)CC2)c1 | 674 |
| CCOC(=O)c1[nH]c(C)c(C(=O)C(C)N(Cc2ccc(F)cc2)C(=O)C2CC2)c1C (configuration not stated) | 917 |
| CC(C)CN(Cc1ccccc1)Cc1cc(=O)n2cc(Cl)ccc2n1 | 686 |

| Compound | RP-LC retention time [s] |
| --- | --- |
| Cc1ccc(C(C)C)c(OCC(=O)Nc2ccc(S(=O)(=O)Nc3cc(C)on3)cc2)c1 | 1000 |
| O=C(CCC(=O)N1CCCC1c1nc2ccccc2s1)N1CCN(c2ccccc2)CC1 (configuration not stated) | 812 |
| CCc1nc2c(c(=O)n1CC(=O)NCc1cccc(C)c1)CN(Cc1ccccc1)CC2 | 661 |
| CS(=O)(=O)Nc1ccc(C2(C(=O)NCc3ccccc3F)CCCCC2)cc1 | 904 |
| COC[C@@H]1CN(S(=O)(=O)c2ccc(F)cc2)C[C@H]1c1ccccn1 | 745 |
| CCCCC(=O)Nc1nc(-c2ccc3c(c2)N(C)C(=O)CO3)cs1 | 900 |
| Cc1ccc(Cl)cc1NC(=O)c1cccn1Cc1noc(C2CC2)n1 | 1000 |
| COc1cccc(N2CC(NC(=O)Nc3cccnc3)CC2=O)c1 (configuration not stated) | 544 |
| COc1cc(OC)cc(-c2nnc(-c3ccccc3Cl)o2)c1 | 1070 |
| CCOc1cc(S(=O)(=O)NCc2ccccn2)ccc1Br | 666 |
| CCOC(=O)c1c(C)oc2nc(C)nc(NCc3ccc4c(c3)OCO4)c12 | 1100 |
| COc1cccc(C2CC(c3ccc(Br)cc3)=NC3(CCN(C)CC3)N2)c1O (configuration not stated) | 620 |
| O=C(c1cccc(Cl)c1)N(CCS(=O)(=O)N1CCNCC1)CC1CCCO1 (configuration not stated) | 618 |
| CCN1C(=O)c2ccccc2Oc2ccc(C(=O)N3CCN(c4cc(C)ccc4C)CC3)cc21 | 1190 |
| CCCCN(C)C(=O)C1CCN(c2cn[nH]c(=O)c2)CC1 | 640 |
| CCN(CC)S(=O)(=O)c1ccc2c(c1)ncn2CCC(=O)N1CCN(c2ccccn2)CC1 | 602 |
| C[C@H]1CN(C(=O)CSc2ccccc2)C[C@@H]1c1nc(-c2cccnc2)no1 | 823 |
| O=C(Nc1ccccc1-c1nc2ccccc2[nH]1)C1CC1 | 623 |
| COC(=O)c1c(NCCc2c[nH]c3ccccc23)c2cc(Cl)ccc2[nH]c1=O | 809 |
| O=C(c1cccnc1)c1cc(-c2ccccn2)c(=O)n2ccccc12 | 630 |
| O=C(NCc1ccco1)c1ccc2c(c1)N(Cc1ccc(F)cc1)C(=O)CO2 | 830 |
